Results published in publication PMC10849125 (RSC Chemical Biology, 2023).

How the values were obtained:
[1] = biological target: HR1–HR2 interaction (MBP-HR1 / ALP-HR2) of SARS-CoV-2 (Severe acute respiratory syndrome coronavirus 2, UniProt P0DTC2); assay: SPICA: inhibition of the HR1–HR2 interaction; format: binding; conditions: for IC50: pIC50 ± SD, 20 nM MBP-HR1 coated, 5 nM ALP-HR2, MES pH 6.4, OD630, SD; for inhibition of the HR1–HR2 interaction of SARS-CoV-2 (in words): negative controls
VeroE6/TMPRSS2 cells = assay: Cytotoxicity, MTT assay; format: cell-based, African green monkey; conditions: mock cell viability, 3 days

Row | Structure (SMILES) | IC50 [1] | inhibition of the HR1–HR2 interaction of SARS-CoV-2 (in words) [1] | pCC50 ± SD (VeroE6/TMPRSS2 cells)
1 | CC[C@H](C)[C@H](NC(=O)[C@H](C)NC(=O)[C@H](CCC(=O)O)NC(=O)[C@H](CCC(=O)O)NC(=O)[C@H](CC(C)C)NC(=O)[C@H](CCCCN)NC(=O)[C@H](CCCCN)NC(=O)[C@H](CCSC)NC(=O)[C@H](CCC(=O)O)NC(=O)[C@H](Cc1ccc(O)cc1)NC(=O)[C@H](CCC(=O)O)NC(=O)[C@H](CC(C)C)NC(=O)[C@H](CC(=O)O)NC(=O)[C@H](CC(C)C)NC(=O)[C@H](Cc1ccccc1)NC(=O)[C@@H](NC(=O)[C@@H](NC(=O)[C@H](CC(N)=O)NC(=O)[C@@H](NC(=O)[C@H](CCC(N)=O)NC(=O)[C@H](CC(=O)O)NC(=O)[C@H](CC(C)C)NC(=O)[C@@H](N)CO)[C@@H](C)CC)C(C)C)[C@@H](C)O)C(=O)N[C@@H](CCCCN)C(=O)N[C@@H](CCCCN)C(=O)N[C@@H](CC(C)C)C(=O)N[C@@H](CCC(=O)O)C(=O)N[C@@H](CCC(=O)O)C(=O)N[C@@H](CO)C(=O)N[C@@H](Cc1ccc(O)cc1)C(=O)N[C@H](C(=O)N[C@@H](CC(=O)O)C(=O)N[C@@H](CC(C)C)C(=O)N[C@@H](CCCCN)C(=O)N[C@@H](CCC(=O)O)C(=O)N[C@@H](CC(C)C)C(=O)O)[C@@H](C)CC [EK1] | 0.001 µM |  | 
2 | Cc1nnnn1N=Cc1ccc(O)c(C(c2ccc(O)cc2)c2cc(C=Nn3nnnc3C)ccc2O)c1 (centres unmarked) [VP-14637] | 25.1 µM | failed to block the HR1–HR2 interaction | 
3 | CCC(CC)COC(=O)[C@H](C)N[P@](=O)(OC[C@H]1O[C@@](C#N)(c2ccc3c(N)ncnn23)[C@H](O)[C@@H]1O)Oc1ccccc1 [remdesivir] |  | no inhibitory effect | 4.2 ± 0.1
